Measured values published in article PMC4116505, “HER2-signaling pathway, JNK and ERKs kinases, and cancer stem-like cells are targets of Bozepinib” (Oncotarget, 2014).

Columns and labels:
[1] = target: T1, HER2 (Homo sapiens, UniProt P04626); assay: 36-kinase panel, residual activity at […]; p-HER2 loss in SKBR-3 cells by western blot; format: biochemical
T1 construct: gene ERBB2

[2] = target: T2, IKK- alpha (Homo sapiens, UniProt O15111); assay: biochemical; design: protein kinase panel (36 kinases), residual activity at two concentrations, singlicate
T2 construct: gene CHUK
Procedure: (§1) The kinase inhibition profile of Bozepinib was determined using a panel of 36 protein kinases (Supplementary Table S1). Residual activity values were measured by testing each compound at two concentrations (5×10^−5 M and 5×10^−6 M) in singlicate for each kinase assay. Detailed methods for kinome analyses are provided in Supplementary Materials and Methods. […] Each experiment was repeated three times. Kinase Inhibition Assays Bozepinib was dissolved in volumes of 100% DMSO to reach stock concentrations of 5×10^-3 M/100% DMSO and 5×10^-4 M/100% DMSO, respectively. In the process, the 5×10^-3 M/100% DMSO and 5×10^-4 M/100% DMSO solutions were diluted with water to 5×10^-4 M/10% DMSO and 5×10^-5 M/10% DMSO in a 96 well microtiter plate directly before use. For every kinase, 5 μl from each of the 5×10^-4 M/10% DMSO and 5×10^-5 M/10% DMSO compound solutions were transferred into the assay plates. The To study the effect of Bozepinib on cancer proliferation pathways, we carried out an ex vivo multikinase screening assay (n=36) using 5μM and 50μM (Supplementary Table S3). […] In order to analyze whether Bozepinib inhibits the HER2 signaling pathways in breast cancer cells, we treated the HER2 positive SKBR-3 cell line with 5 μM of Bozepinib and we analyzed the expression and activation of proteins involved in HER2 signaling at different times post-treatment by western blot analysis (Fig. 1A). […] Moreover, we also detected both the inhibition of ERKs and JNK phosphorylation in MCF-7 and MDA-MB 468 breast cancer cell lines, that was more notable in MCF-7 cells at 4 hours post-treatment and in MDA-MB 468 cell line after 8 hours post-treatment (Fig. 1B and 1C).

[3] = target: JAK3 (Homo sapiens, UniProt P52333); assay: biochemical; design: protein kinase panel (36 kinases), residual activity at two concentrations, singlicate
Procedure: as §1

[4] = target: CDK8/CycC (Homo sapiens, UniProt P49336); assay: biochemical; design: protein kinase panel (36 kinases), residual activity at two concentrations, singlicate
Procedure: as §1

[5] = target: CDK9/CycT (Homo sapiens, UniProt P50750); assay: biochemical; design: protein kinase panel (36 kinases), residual activity at two concentrations, singlicate
Procedure: as §1

[6] = target: T3, STK23 (Homo sapiens, UniProt Q9UPE1); assay: biochemical; design: protein kinase panel (36 kinases), residual activity at two concentrations, singlicate
T3 construct: gene SRPK3
Procedure: as §1

[7] = target: T4, VEGFR-3 (Homo sapiens, UniProt P35916); assay: biochemical; design: protein kinase panel (36 kinases), residual activity at two concentrations, singlicate
T4 construct: gene FLT4
Procedure: as §1

[8] = target: T5, JNK1 (Homo sapiens, UniProt P45983); assay: biochemical; design: protein kinase panel (36 kinases), residual activity at two concentrations, singlicate
T5 construct: gene MAPK8
Procedure: as §1

[9] = target: RET (Homo sapiens, UniProt P07949); assay: biochemical; design: protein kinase panel (36 kinases), residual activity at two concentrations, singlicate
Procedure: as §1

[10] = target: T6, JNK2 (Homo sapiens, UniProt P45984); assay: biochemical; design: protein kinase panel (36 kinases), residual activity at two concentrations, singlicate
T6 construct: gene MAPK9
Procedure: as §1

[11] = target: T7, ERK2 (Homo sapiens, UniProt P28482); assay: biochemical; design: protein kinase panel (36 kinases), residual activity at two concentrations, singlicate
T7 construct: gene MAPK1
Procedure: as §1

[12] = target: STK33 (Homo sapiens, UniProt Q9BYT3); assay: biochemical; design: protein kinase panel (36 kinases), residual activity at two concentrations, singlicate
Procedure: as §1

[13] = target: AKT1 (Homo sapiens, UniProt P31749); assay: biochemical; design: protein kinase panel (36 kinases), residual activity at two concentrations, singlicate
Procedure: as §1

[14] = target: AKT3 (Homo sapiens, UniProt Q9Y243); assay: biochemical; design: protein kinase panel (36 kinases), residual activity at two concentrations, singlicate
Procedure: as §1

[15] = target: EGFR (Homo sapiens, UniProt P00533); assay: biochemical; design: protein kinase panel (36 kinases), residual activity at two concentrations, singlicate
Procedure: as §1

[16] = target: T8, PDK1 (Homo sapiens, UniProt O15530); assay: biochemical; design: protein kinase panel (36 kinases), residual activity at two concentrations, singlicate
T8 construct: gene PDPK1
Procedure: as §1

[17] = target: T9, IKK-epsilon (Homo sapiens, UniProt Q14164); assay: biochemical; design: protein kinase panel (36 kinases), residual activity at two concentrations, singlicate
T9 construct: gene IKBKE
Procedure: as §1

[18] = target: CDK6/CycD1 (Homo sapiens, UniProt Q00534); assay: biochemical; design: protein kinase panel (36 kinases), residual activity at two concentrations, singlicate
Procedure: as §1

[19] = target: T10, AKT2 (Homo sapiens, UniProt P31751); assay: biochemical; design: protein kinase panel (36 kinases), residual activity at two concentrations, singlicate
Procedure: as §1

[20] = target: T11, IKK-beta (Homo sapiens, UniProt O14920); assay: biochemical; design: protein kinase panel (36 kinases), residual activity at two concentrations, singlicate
T11 construct: gene IKBKB
Procedure: as §1

[21] = target: T1, HER2; assay: biochemical; design: protein kinase panel (36 kinases), residual activity at two concentrations, singlicate
Procedure: as §1

[22] = target: CDK7/CycH/MAT1 (Homo sapiens, UniProt P50613); assay: biochemical; design: protein kinase panel (36 kinases), residual activity at two concentrations, singlicate
Procedure: as §1

[23] = target: T12, VEGFR-2 (Homo sapiens, UniProt P35968); assay: biochemical; design: protein kinase panel (36 kinases), residual activity at two concentrations, singlicate
T12 construct: gene KDR
Procedure: as §1

[24] = target: T13, PKC-alpha (Homo sapiens, UniProt P17252); assay: biochemical; design: protein kinase panel (36 kinases), residual activity at two concentrations, singlicate
T13 construct: gene PRKCA
Procedure: as §1

[25] = target: T14, P38-alpha (Homo sapiens, UniProt Q16539); assay: biochemical; design: protein kinase panel (36 kinases), residual activity at two concentrations, singlicate
T14 construct: gene MAPK14
Procedure: as §1

[26] = target: T15, VEGFR-1 (Homo sapiens, UniProt P17948); assay: biochemical; design: protein kinase panel (36 kinases), residual activity at two concentrations, singlicate
T15 construct: gene FLT1
Procedure: as §1

[27] = target: T16, JNK3 (Homo sapiens, UniProt P53779); assay: biochemical; design: protein kinase panel (36 kinases), residual activity at two concentrations, singlicate
T16 construct: gene MAPK10
Procedure: as §1

[28] = target: T10, AKT2; assay: 36-kinase panel, residual activity at […]; format: biochemical
[29] = target: T12, VEGFR-2; assay: 36-kinase panel, residual activity at […]; format: biochemical
[30] = target: T15, VEGFR-1; assay: 36-kinase panel, residual activity at […]; format: biochemical
[31] = target: T4, VEGFR-3; assay: 36-kinase panel, residual activity at […]; format: biochemical
[32] = read-out: Bozepinib 5 µM, residual activity %
[33] = read-out: Bozepinib 50 µM, residual activity %

T12 sequence (P35968 20-1356): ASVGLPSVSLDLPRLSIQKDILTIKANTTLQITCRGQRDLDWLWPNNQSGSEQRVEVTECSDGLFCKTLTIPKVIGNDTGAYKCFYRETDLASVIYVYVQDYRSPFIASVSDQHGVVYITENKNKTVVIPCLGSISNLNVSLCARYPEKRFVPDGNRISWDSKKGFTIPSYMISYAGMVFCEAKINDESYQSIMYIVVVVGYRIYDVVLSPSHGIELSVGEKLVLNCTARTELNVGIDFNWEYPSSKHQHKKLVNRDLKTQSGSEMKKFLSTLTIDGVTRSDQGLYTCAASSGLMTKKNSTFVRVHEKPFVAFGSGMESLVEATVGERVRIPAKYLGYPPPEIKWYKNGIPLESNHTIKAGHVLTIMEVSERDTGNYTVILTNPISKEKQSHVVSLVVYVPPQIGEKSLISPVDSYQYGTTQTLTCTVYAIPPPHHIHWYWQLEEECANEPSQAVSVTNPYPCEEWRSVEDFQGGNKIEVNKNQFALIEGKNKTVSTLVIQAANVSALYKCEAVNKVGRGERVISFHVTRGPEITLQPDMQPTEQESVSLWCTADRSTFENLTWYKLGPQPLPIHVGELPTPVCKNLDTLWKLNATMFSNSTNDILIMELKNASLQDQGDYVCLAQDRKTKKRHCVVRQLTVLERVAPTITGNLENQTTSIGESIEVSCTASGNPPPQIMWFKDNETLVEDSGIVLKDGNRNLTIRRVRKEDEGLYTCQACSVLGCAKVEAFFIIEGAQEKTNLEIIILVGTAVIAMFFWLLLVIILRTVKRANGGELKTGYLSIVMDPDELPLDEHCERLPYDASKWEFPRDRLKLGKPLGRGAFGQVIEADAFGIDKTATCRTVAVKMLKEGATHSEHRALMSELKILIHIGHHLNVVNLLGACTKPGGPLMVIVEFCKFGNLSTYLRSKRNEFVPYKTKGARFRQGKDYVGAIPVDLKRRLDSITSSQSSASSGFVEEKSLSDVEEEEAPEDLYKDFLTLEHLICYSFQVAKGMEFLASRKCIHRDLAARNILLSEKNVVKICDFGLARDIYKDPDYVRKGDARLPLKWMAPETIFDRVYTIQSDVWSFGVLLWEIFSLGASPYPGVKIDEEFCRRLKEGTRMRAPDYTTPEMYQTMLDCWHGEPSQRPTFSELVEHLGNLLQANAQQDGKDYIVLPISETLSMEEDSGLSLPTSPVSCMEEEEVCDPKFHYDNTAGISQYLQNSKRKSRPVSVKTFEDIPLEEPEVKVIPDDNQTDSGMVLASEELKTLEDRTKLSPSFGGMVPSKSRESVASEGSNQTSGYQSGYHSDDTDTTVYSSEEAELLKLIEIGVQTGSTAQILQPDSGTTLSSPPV
T15 sequence (P17948 27-1338): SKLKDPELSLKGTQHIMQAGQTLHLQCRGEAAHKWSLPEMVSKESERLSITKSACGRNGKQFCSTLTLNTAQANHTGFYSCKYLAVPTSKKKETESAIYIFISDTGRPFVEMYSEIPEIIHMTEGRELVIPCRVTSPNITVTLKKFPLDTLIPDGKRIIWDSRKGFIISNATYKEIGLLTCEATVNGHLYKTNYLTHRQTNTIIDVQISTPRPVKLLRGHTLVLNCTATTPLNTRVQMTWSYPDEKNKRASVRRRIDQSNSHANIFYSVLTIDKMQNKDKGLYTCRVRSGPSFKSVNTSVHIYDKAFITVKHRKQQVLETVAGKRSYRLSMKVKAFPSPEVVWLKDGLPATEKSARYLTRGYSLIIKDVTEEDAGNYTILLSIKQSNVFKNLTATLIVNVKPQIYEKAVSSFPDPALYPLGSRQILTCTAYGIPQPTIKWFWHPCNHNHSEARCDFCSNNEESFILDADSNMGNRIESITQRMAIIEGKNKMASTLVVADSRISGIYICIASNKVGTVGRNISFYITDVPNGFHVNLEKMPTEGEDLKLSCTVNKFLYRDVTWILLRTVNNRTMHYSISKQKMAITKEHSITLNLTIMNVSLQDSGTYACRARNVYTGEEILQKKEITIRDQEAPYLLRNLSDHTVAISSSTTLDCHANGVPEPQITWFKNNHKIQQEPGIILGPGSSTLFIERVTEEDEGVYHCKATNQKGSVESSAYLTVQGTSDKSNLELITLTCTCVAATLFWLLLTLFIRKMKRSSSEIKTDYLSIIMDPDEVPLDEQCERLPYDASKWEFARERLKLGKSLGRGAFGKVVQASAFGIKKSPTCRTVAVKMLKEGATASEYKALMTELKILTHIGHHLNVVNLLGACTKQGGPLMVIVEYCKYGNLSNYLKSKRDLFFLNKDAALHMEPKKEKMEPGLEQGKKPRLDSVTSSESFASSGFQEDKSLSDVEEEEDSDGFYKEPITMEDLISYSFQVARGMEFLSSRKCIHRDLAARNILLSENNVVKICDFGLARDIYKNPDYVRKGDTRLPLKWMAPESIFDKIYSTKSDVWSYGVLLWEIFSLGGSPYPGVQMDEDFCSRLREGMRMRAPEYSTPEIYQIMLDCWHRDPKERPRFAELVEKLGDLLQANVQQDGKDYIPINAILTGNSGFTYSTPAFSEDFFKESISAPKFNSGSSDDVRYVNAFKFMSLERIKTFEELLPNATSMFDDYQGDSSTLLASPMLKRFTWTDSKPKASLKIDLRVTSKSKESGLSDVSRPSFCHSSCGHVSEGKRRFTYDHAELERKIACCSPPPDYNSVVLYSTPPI
T10 sequence (P31751 whole entry): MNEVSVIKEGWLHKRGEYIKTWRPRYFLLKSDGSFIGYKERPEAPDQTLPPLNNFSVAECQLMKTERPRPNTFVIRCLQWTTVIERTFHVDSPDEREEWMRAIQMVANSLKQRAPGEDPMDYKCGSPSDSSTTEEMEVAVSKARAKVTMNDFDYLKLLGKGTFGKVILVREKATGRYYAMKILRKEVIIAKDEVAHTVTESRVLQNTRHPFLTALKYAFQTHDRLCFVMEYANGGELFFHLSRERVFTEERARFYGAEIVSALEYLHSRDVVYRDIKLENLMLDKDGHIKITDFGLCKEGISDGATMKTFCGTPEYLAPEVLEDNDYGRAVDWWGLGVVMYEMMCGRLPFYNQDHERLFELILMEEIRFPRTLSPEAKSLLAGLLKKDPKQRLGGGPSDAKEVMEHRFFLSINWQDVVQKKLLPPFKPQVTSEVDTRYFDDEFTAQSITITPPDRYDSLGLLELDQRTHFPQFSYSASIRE
T1 sequence (P04626 23-1255): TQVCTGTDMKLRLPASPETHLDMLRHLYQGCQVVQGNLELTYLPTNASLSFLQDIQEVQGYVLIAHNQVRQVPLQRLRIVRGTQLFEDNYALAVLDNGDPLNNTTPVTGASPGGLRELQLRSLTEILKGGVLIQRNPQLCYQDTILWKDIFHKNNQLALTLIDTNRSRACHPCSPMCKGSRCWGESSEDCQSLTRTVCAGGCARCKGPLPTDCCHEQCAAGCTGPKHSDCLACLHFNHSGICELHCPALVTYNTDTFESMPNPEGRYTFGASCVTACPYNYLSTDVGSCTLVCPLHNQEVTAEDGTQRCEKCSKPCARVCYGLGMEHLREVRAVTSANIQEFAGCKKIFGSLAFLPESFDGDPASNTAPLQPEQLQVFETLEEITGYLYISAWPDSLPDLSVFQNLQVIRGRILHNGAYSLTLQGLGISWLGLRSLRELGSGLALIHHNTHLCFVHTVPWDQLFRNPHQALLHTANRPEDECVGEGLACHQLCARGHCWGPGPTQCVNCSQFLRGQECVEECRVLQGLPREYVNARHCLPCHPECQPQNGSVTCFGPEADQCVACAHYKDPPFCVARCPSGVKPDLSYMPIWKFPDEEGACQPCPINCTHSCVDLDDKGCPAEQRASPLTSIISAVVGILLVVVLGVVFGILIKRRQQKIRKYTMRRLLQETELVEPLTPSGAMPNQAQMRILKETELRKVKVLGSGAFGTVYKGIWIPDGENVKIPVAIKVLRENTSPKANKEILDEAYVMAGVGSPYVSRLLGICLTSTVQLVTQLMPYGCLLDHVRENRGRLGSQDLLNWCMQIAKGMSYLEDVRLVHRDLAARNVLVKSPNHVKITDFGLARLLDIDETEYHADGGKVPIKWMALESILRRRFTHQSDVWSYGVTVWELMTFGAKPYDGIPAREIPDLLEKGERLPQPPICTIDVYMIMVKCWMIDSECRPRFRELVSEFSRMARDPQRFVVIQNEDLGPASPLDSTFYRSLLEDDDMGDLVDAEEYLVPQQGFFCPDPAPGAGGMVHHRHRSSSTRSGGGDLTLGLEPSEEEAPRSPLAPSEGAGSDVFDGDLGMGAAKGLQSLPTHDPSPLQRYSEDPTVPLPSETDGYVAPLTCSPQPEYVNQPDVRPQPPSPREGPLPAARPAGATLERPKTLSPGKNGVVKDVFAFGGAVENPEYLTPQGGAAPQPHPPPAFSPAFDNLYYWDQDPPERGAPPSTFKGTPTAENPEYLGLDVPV
T2 sequence (O15111 whole entry): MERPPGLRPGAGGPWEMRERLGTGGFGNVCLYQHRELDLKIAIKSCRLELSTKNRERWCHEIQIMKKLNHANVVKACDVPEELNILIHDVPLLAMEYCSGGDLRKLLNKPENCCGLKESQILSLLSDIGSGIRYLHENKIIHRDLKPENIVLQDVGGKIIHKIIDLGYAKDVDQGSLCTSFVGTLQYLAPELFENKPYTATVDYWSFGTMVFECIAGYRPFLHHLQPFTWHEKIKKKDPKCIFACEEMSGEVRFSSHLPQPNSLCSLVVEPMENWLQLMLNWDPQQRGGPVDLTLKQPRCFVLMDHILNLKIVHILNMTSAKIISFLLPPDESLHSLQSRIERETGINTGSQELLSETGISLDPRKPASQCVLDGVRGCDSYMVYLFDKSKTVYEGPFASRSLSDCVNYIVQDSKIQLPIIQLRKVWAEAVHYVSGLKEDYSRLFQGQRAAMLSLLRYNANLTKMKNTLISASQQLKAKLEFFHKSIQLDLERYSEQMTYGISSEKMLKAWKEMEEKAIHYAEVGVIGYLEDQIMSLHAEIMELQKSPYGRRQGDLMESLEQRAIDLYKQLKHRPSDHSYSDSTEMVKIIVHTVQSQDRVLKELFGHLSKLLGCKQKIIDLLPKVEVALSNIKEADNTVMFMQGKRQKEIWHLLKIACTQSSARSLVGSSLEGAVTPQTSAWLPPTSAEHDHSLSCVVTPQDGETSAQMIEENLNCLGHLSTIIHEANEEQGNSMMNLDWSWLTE

**Q.** Which “36-kinase panel, residual activity at 5 and 50 μM; p-HER2 loss in SKBR-3 cells b” value [1] does the source give for `O=[N+]([O-])c1ccc(S(=O)(=O)N2CC(n3cnc4c(Cl)nc(Cl)nc43)OCc3ccccc32)cc1` (racemic) [Bozepinib, (RS)-2,6-dichloro-9-[1-(p-nitrobenzenesulfonyl)-1,2,3,5-tetrahydro-4,1-benzoxazepin-3-yl]-9H-purine] here?
**A.** HER2, AKT2 and VEGF receptors were considerably inhibited in the screening (Supplementary Table S3)

**Q.** And the remaining activity at 5 µM [2, 32]?
**A.** 104%

**Q.** And the remaining activity at 50 µM [2, 33]?
**A.** 51%

**Q.** What about the remaining activity at 5 µM [3, 32] of the same compound?
**A.** 94%

**Q.** And the remaining activity at 50 µM [3, 33]?
**A.** 43%

**Q.** What about the remaining activity at 5 µM [4, 32] of the same compound?
**A.** 109%

**Q.** And the remaining activity at 50 µM [4, 33]?
**A.** 72%

**Q.** And the remaining activity at 5 µM [5, 32]?
**A.** 102%

**Q.** And the remaining activity at 50 µM [5, 33]?
**A.** 69%

**Q.** What about the remaining activity at 5 µM [6, 32] of the same compound?
**A.** 95%

**Q.** What about the remaining activity at 50 µM [6, 33] of the same compound?
**A.** 89%

**Q.** And the remaining activity at 5 µM [7, 32]?
**A.** 84%

**Q.** What about the remaining activity at 50 µM [7, 33] of the same compound?
**A.** 13%

**Q.** What about the remaining activity at 5 µM [8, 32] of the same compound?
**A.** 45%

**Q.** What about the remaining activity at 50 µM [8, 33] of the same compound?
**A.** 29%

**Q.** And the remaining activity at 5 µM [9, 32]?
**A.** 79%

**Q.** And the remaining activity at 50 µM [9, 33]?
**A.** 14%

**Q.** What about the remaining activity at 5 µM [10, 32] of the same compound?
**A.** 77%

**Q.** What about the remaining activity at 50 µM [10, 33] of the same compound?
**A.** 37%

**Q.** And the remaining activity at 5 µM [11, 32]?
**A.** 104%

**Q.** What about the remaining activity at 50 µM [11, 33] of the same compound?
**A.** 50%

**Q.** And the remaining activity at 5 µM [12, 32]?
**A.** 102%

**Q.** What about the remaining activity at 50 µM [12, 33] of the same compound?
**A.** 72%

**Q.** What about the remaining activity at 5 µM [13, 32] of the same compound?
**A.** 96%

**Q.** And the remaining activity at 50 µM [13, 33]?
**A.** 78%

**Q.** And the remaining activity at 5 µM [14, 32]?
**A.** 98%

**Q.** And the remaining activity at 50 µM [14, 33]?
**A.** 88%

**Q.** And the remaining activity at 5 µM [15, 32]?
**A.** 84%

**Q.** And the remaining activity at 50 µM [15, 33]?
**A.** 17%

**Q.** What about the remaining activity at 5 µM [16, 32] of the same compound?
**A.** 41%

**Q.** And the remaining activity at 50 µM [16, 33]?
**A.** 27%

**Q.** What about the remaining activity at 5 µM [17, 32] of the same compound?
**A.** 113%

**Q.** And the remaining activity at 50 µM [17, 33]?
**A.** 71%

**Q.** And the remaining activity at 5 µM [18, 32]?
**A.** 95%

**Q.** What about the remaining activity at 50 µM [18, 33] of the same compound?
**A.** 64%

**Q.** What about the remaining activity at 5 µM [19, 32] of the same compound?
**A.** 100%

**Q.** What about the remaining activity at 50 µM [19, 33] of the same compound?
**A.** 43%

**Q.** And the remaining activity at 5 µM [20, 32]?
**A.** 113%

**Q.** And the remaining activity at 50 µM [20, 33]?
**A.** 78%

**Q.** What about the remaining activity at 5 µM [21, 32] of the same compound?
**A.** 101%

**Q.** And the remaining activity at 50 µM [21, 33]?
**A.** 25%

**Q.** What about the remaining activity at 5 µM [22, 32] of the same compound?
**A.** 96%

**Q.** And the remaining activity at 50 µM [22, 33]?
**A.** 69%

**Q.** What about the remaining activity at 5 µM [23, 32] of the same compound?
**A.** 82%

**Q.** And the remaining activity at 50 µM [23, 33]?
**A.** 13%

**Q.** And the remaining activity at 5 µM [24, 32]?
**A.** 86%

**Q.** And the remaining activity at 50 µM [24, 33]?
**A.** 24%

**Q.** And the remaining activity at 5 µM [25, 32]?
**A.** 115%

**Q.** And the remaining activity at 50 µM [25, 33]?
**A.** 57%

**Q.** What about the remaining activity at 5 µM [26, 32] of the same compound?
**A.** 91%

**Q.** What about the remaining activity at 50 µM [26, 33] of the same compound?
**A.** 18%

**Q.** What about the remaining activity at 5 µM [27, 32] of the same compound?
**A.** 81%

**Q.** What about the remaining activity at 50 µM [27, 33] of the same compound?
**A.** 43%

**Q.** What about the “36-kinase panel, residual activity at 5 and 50 μM” value [28] of the same compound?
**A.** HER2, AKT2 and VEGF receptors were considerably inhibited in the screening (Supplementary Table S3)

**Q.** And the “36-kinase panel, residual activity at 5 and 50 μM” value [29]?
**A.** showed inhibitory effects against VEGFR-1, VEGFR-2 and VEGFR-3 in the kinome assay

**Q.** And the “36-kinase panel, residual activity at 5 and 50 μM” value [30]?
**A.** showed inhibitory effects against VEGFR-1, VEGFR-2 and VEGFR-3 in the kinome assay

**Q.** And the “36-kinase panel, residual activity at 5 and 50 μM” value [31]?
**A.** showed inhibitory effects against VEGFR-1, VEGFR-2 and VEGFR-3 in the kinome assay
